Data published in PubChem BioAssay AID1919014 (Molecular Pharmacology Branch, DTP, NCI, 2023).

Tested on: NCI-H1341 complex spheroids, percent test/control
Experiment: Anticancer human tumor NCI-H1341 cell line growth inhibition [AhR];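 further: spheroids exposed to agents for seven days before readout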
Settings: for IC50: curve of first compound; for viability, T/C: stronger effect = lower value
Summary of the method: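 Agents were dosed in half-log steps down from roughly clinical Cmax, or from 10 microM where Cmax was unknown, alone and with AhR antagonists. Read-out: percent test/control growth of tumor spheroids containing HUVEC and MSC stromal cells.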

[1] = second compound 0.1 µM, first compound 0.0316 µM
[2] = second compound 0.1 µM, first compound 0.1 µM
[3] = second compound 0.1 µM, first compound 0.316 µM
[4] = second compound 0.1 µM, first compound 1 µM
[5] = second compound 0.1 µM, first compound 3.16 µM
[6] = second compound 0.1 µM, first compound 10 µM
[7] = second compound 0.316 µM, first compound 0.0316 µM
[8] = second compound 0.316 µM, first compound 0.1 µM
[9] = second compound 0.316 µM, first compound 0.316 µM
[10] = second compound 0.316 µM, first compound 1 µM
[11] = second compound 0.316 µM, first compound 3.16 µM
[12] = second compound 0.316 µM, first compound 10 µM
[13] = second compound 1 µM, first compound 0.0316 µM
[14] = second compound 1 µM, first compound 0.1 µM
[15] = second compound 1 µM, first compound 0.316 µM
[16] = second compound 1 µM, first compound 1 µM
[17] = second compound 1 µM, first compound 3.16 µM
[18] = second compound 1 µM, first compound 10 µM
[19] = second compound 3.16 µM, first compound 0.0316 µM
[20] = second compound 3.16 µM, first compound 0.1 µM
[21] = second compound 3.16 µM, first compound 0.316 µM
[22] = second compound 3.16 µM, first compound 1 µM
[23] = second compound 3.16 µM, first compound 3.16 µM
[24] = second compound 3.16 µM, first compound 10 µM
[25] = second compound 10 µM, first compound 0.0316 µM
[26] = second compound 10 µM, first compound 0.1 µM
[27] = second compound 10 µM, first compound 0.316 µM
[28] = second compound 10 µM, first compound 1 µM
[29] = second compound 10 µM, first compound 3.16 µM
[30] = second compound 10 µM, first compound 10 µM

Structure (SMILES)	IC50 (second compound 0.1 µM) [nM]	IC50 (second compound 0.316 µM) [nM]	IC50 (second compound 1 µM) [nM]	IC50 (second compound 3.16 µM) [nM]	IC50 (second compound 10 µM) [nM]	viability, T/C [1] [%]	viability, T/C [2] [%]	viability, T/C [3] [%]	viability, T/C [4] [%]	viability, T/C [5] [%]	viability, T/C [6] [%]	viability, T/C [7] [%]	viability, T/C [8] [%]	viability, T/C [9] [%]	viability, T/C [13] [%]	viability, T/C [14] [%]	viability, T/C [19] [%]	viability, T/C [20] [%]	viability, T/C [25] [%]	viability, T/C [26] [%]	other results
COc1cc(Nc2ncc3c(n2)-c2ccc(Cl)cc2C(c2c(F)cccc2OC)=NC3)ccc1C(=O)O + Cc1ccccc1N=Nc1ccc(NC(=O)c2ccnn2C)c(C)c1	< 31.6	< 31.6	249	< 31.6	< 31.6	48.9	45.1	42	31.9	29.9	25.6	50.6	46.3	48.5	56.2	55.3	47.7	48.1	44	43.9	viability, T/C [10]: 39.2%; viability, T/C [11]: 30%; viability, T/C [12]: 25.2%; viability, T/C [15]: 48.3%; viability, T/C [16]: 40%; viability, T/C [17]: 31.4%; viability, T/C [18]: 26%; viability, T/C [21]: 39.5%; viability, T/C [22]: 40.9%; viability, T/C [23]: 25.3%; viability, T/C [24]: 26.8%; viability, T/C [27]: 37.3%; viability, T/C [28]: 38.2%; viability, T/C [29]: 27.3%; viability, T/C [30]: 28.6%
Cn1ncnc1C1c2n[nH]c(=O)c3cc(F)cc(c23)NC1c1ccc(F)cc1 (stereo not given) + Cc1ccccc1N=Nc1ccc(NC(=O)c2ccnn2C)c(C)c1	> 100	> 100	> 100	> 100	70.1	95.2	90.1	–	–	–	–	90.9	84.5	–	84.9	59.6	70.5	54.6	58.2	41.7	viability, T/C (second compound 0.1 µM, first compound 0.000316 µM): 112%; viability, T/C (second compound 0.1 µM, first compound 0.001 µM): 105%; viability, T/C (second compound 0.1 µM, first compound 0.00316 µM): 80.9%; viability, T/C (second compound 0.1 µM, first compound 0.01 µM): 86.1%; viability, T/C (second compound 0.316 µM, first compound 0.000316 µM): 89.9%; viability, T/C (second compound 0.316 µM, first compound 0.001 µM): 103%; viability, T/C (second compound 0.316 µM, first compound 0.00316 µM): 93.6%; viability, T/C (second compound 0.316 µM, first compound 0.01 µM): 101%; viability, T/C (second compound 1 µM, first compound 0.000316 µM): 101%; viability, T/C (second compound 1 µM, first compound 0.001 µM): 94.2%; viability, T/C (second compound 1 µM, first compound 0.00316 µM): 80.2%; viability, T/C (second compound 1 µM, first compound 0.01 µM): 88.8%; viability, T/C (second compound 3.16 µM, first compound 0.000316 µM): 75.6%; viability, T/C (second compound 3.16 µM, first compound 0.001 µM): 72.5%; viability, T/C (second compound 3.16 µM, first compound 0.00316 µM): 83.7%; viability, T/C (second compound 3.16 µM, first compound 0.01 µM): 79%; viability, T/C (second compound 10 µM, first compound 0.000316 µM): 56.3%; viability, T/C (second compound 10 µM, first compound 0.001 µM): 56.5%; viability, T/C (second compound 10 µM, first compound 0.00316 µM): 47.7%; viability, T/C (second compound 10 µM, first compound 0.01 µM): 59.9%
NS(=O)(=O)OCC1CC(n2ccc3c(NC4CCc5ccccc54)ncnc32)CC1O (stereo not given) + Cc1ccccc1N=Nc1ccc(NC(=O)c2ccnn2C)c(C)c1	113	63.3	111	110	< 31.6	51.6	56.5	16.4	7.98	7.35	6.54	59	44.2	16.8	61.5	53.1	51.5	53.4	40.4	35.7	viability, T/C [10]: 9.99%; viability, T/C [11]: 7.77%; viability, T/C [12]: 6.89%; viability, T/C [15]: 22.4%; viability, T/C [16]: 11.4%; viability, T/C [17]: 8.79%; viability, T/C [18]: 6.95%; viability, T/C [21]: 23.6%; viability, T/C [22]: 11%; viability, T/C [23]: 7.99%; viability, T/C [24]: 6.85%; viability, T/C [27]: 20.2%; viability, T/C [28]: 10.3%; viability, T/C [29]: 8.16%; viability, T/C [30]: 5.99%
O=C(C=Cc1cccc(S(=O)(=O)Nc2ccccc2)c1)NO + Cc1ccccc1N=Nc1ccc(NC(=O)c2ccnn2C)c(C)c1	568	419	457	266	338	95.4	95.6	75.8	24.8	5.9	0.79	94.8	91.9	54.7	84.3	94.1	77.1	62.2	59.1	55	viability, T/C [10]: 26.2%; viability, T/C [11]: 5.71%; viability, T/C [12]: 0.82%; viability, T/C [15]: 60.3%; viability, T/C [16]: 23%; viability, T/C [17]: 6.42%; viability, T/C [18]: 0.59%; viability, T/C [21]: 49.9%; viability, T/C [22]: 25.4%; viability, T/C [23]: 8.47%; viability, T/C [24]: 0.58%; viability, T/C [27]: 53.5%; viability, T/C [28]: 29%; viability, T/C [29]: 10.8%; viability, T/C [30]: 1.49%
